Test results: ChEMBL document CHEMBL1201862, “PubChem BioAssay data set” (2004)
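Following 48 hours of exposure in 96-well plates, responses at five concentrations were used to interpolate endpoints linearly. Abbreviation: GI50, concentration required for 50% inhibition of growth.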 Calls of active or inactive are those of the source. Rule as the data show it: active = GI50 up to about 1.1 µM and inactive = higher.

Tests used:
Experiment in all cases: NCI tumour cell line growth inhibition, 48 h
ACHN = system: ACHN
HCT-116 = system: HCT-116
SR = system: SR
SK-OV-3 = system: SK-OV-3
COLO 205 = system: COLO 205
NCI-H460 = system: NCI-H460
786-0 = system: 786-0
KM12 = system: KM12
UO-31 = system: UO-31
OVCAR-3 = system: OVCAR-3
A498 = system: A498
HCC 2998 = system: HCC 2998
T47D = system: T47D
OVCAR-5 = system: OVCAR-5
IGROV-1 = system: IGROV-1
CCRF-CEM = system: CCRF-CEM
HCT-15 = system: HCT-15
DU-145 = system: DU-145
UACC-62 = system: UACC-62
EKVX = system: EKVX
SN12C = system: SN12C
TK-10 = system: TK-10
MCF7 = system: MCF7
BT-549 = system: BT-549
NCI-H522 = system: NCI-H522
OVCAR-4 = system: OVCAR-4
HL-60 = system: HL-60
A549 = system: A549
SK-MEL-28 = system: SK-MEL-28
K562 = system: K562
SK-MEL-5 = system: SK-MEL-5
SW-620 = system: SW-620
OVCAR-8 = system: OVCAR-8
HT-29 = system: HT-29
SF-539 = system: SF-539
NCI/ADR-RES = system: NCI/ADR-RES
SNB-19 = system: SNB-19
SF-295 = system: SF-295
M14 = system: M14
MDA-N = system: MDA-N
CAKI-1 = system: CAKI-1
NCI-H226 = system: NCI-H226
UACC-257 = system: UACC-257
NCI-H23 = system: NCI-H23
HOP-92 = system: HOP-92
SF-268 = system: SF-268
MOLT-4 = system: MOLT-4
MDA-MB-435 = system: MDA-MB-435
SNB-75 = system: SNB-75
HOP-62 = system: HOP-62
SK-MEL-2 = system: SK-MEL-2
MDA-MB-231 = system: MDA-MB-231
LOX IMVI = system: LOX IMVI
RPMI-8226 = system: RPMI-8226
U-251 = system: U-251
Hs-578T = system: Hs-578T
PC-3 = system: PC-3
RXF 393 = system: RXF 393
Malme-3M = system: Malme-3M

## C/C=C(/C)C(=O)O[C@H]1CCN2CC=C(COC(=O)[C@@](O)([C@H](C)OC)C(C)(C)O)[C@H]12
ACHN
  GI50: > 100 µM (inactive)
HCT-116
  GI50: > 100 µM (inactive)
SR
  GI50: > 100 µM (inactive)
SK-OV-3
  GI50: > 100 µM (inactive)
COLO 205
  GI50: > 100 µM (inactive)
NCI-H460
  GI50: > 10 µM (inactive)
786-0
  GI50: > 100 µM (inactive)
KM12
  GI50: > 100 µM (inactive)
UO-31
  GI50: > 100 µM (inactive)
OVCAR-3
  GI50: > 100 µM (inactive)
A498
  GI50: > 100 µM (inactive)
HCC 2998
  GI50: > 100 µM (inactive)
T47D
  GI50: > 100 µM (inactive)
OVCAR-5
  GI50: > 100 µM (inactive)
IGROV-1
  GI50: > 100 µM (inactive)
CCRF-CEM
  GI50: > 100 µM (inactive)
HCT-15
  GI50: > 100 µM
DU-145
  GI50: > 100 µM (inactive)
UACC-62
  GI50: > 100 µM (inactive)
EKVX
  GI50: > 100 µM (inactive)
SN12C
  GI50: > 100 µM (inactive)
TK-10
  GI50: > 100 µM (inactive)
MCF7
  GI50: > 100 µM (inactive)
BT-549
  GI50: > 100 µM (inactive)
NCI-H522
  GI50: > 100 µM (inactive)
OVCAR-4
  GI50: > 100 µM (inactive)
HL-60
  GI50: > 100 µM (inactive)
A549
  GI50: > 100 µM (inactive)
SK-MEL-28
  GI50: > 100 µM (inactive)
K562
  GI50: > 100 µM (inactive)
SK-MEL-5
  GI50: > 100 µM (inactive)
SW-620
  GI50: > 100 µM (inactive)
OVCAR-8
  GI50: > 100 µM (inactive)
HT-29
  GI50: > 100 µM (inactive)
SF-539
  GI50: > 100 µM (inactive)
NCI/ADR-RES
  GI50: > 100 µM (inactive)
SNB-19
  GI50: > 100 µM (inactive)
SF-295
  GI50: > 100 µM (inactive)
M14
  GI50: > 100 µM (inactive)
MDA-N
  GI50: > 100 µM (inactive)
CAKI-1
  GI50: > 100 µM (inactive)
NCI-H226
  GI50: > 100 µM (inactive)
UACC-257
  GI50: > 100 µM (inactive)
NCI-H23
  GI50: > 100 µM (inactive)
HOP-92
  GI50: > 100 µM (inactive)
SF-268
  GI50: > 100 µM (inactive)
MOLT-4
  GI50: > 100 µM (inactive)
MDA-MB-435
  GI50: > 100 µM (inactive)
SNB-75
  GI50: > 100 µM (inactive)
HOP-62
  GI50: > 100 µM (inactive)
SK-MEL-2
  GI50: > 100 µM (inactive)
MDA-MB-231
  GI50: > 100 µM (inactive)
LOX IMVI
  GI50: > 100 µM (inactive)
RPMI-8226
  GI50: > 100 µM (inactive)
U-251
  GI50: > 100 µM (inactive)
Hs-578T
  GI50: > 100 µM (inactive)
PC-3
  GI50: > 100 µM (inactive)

## COc1cccc(C2c3cc4c(cc3OC(C)(N3CCCC3)C2C)OCO4)c1OC (centres undefined)
ACHN
  GI50: 3.83 µM (inactive)
HCT-116
  GI50: 4.3 µM (inactive)
SR
  GI50: 4.31 µM (inactive)
RXF 393
  GI50: 14.8 µM (inactive)
SK-OV-3
  GI50: 5.82 µM (inactive)
COLO 205
  GI50: 7.67 µM (inactive)
NCI-H460
  GI50: 11.7 µM (inactive)
786-0
  GI50: 14.5 µM (inactive)
KM12
  GI50: 6.78 µM (inactive)
UO-31
  GI50: 6.41 µM (inactive)
OVCAR-3
  GI50: 5.07 µM (inactive)
HCC 2998
  GI50: 19.1 µM (inactive)
Malme-3M
  GI50: 18.8 µM (inactive)
T47D
  GI50: 4.24 µM (inactive)
OVCAR-5
  GI50: 16 µM (inactive)
IGROV-1
  GI50: 5.82 µM (inactive)
CCRF-CEM
  GI50: 4.85 µM (inactive)
HCT-15
  GI50: 4.83 µM
DU-145
  GI50: 10 µM (inactive)
UACC-62
  GI50: 16.9 µM (inactive)
EKVX
  GI50: 14.9 µM (inactive)
SN12C
  GI50: 6.52 µM (inactive)
TK-10
  GI50: 13.7 µM (inactive)
MCF7
  GI50: 11.9 µM (inactive)
BT-549
  GI50: 6.67 µM (inactive)
NCI-H522
  GI50: 13.9 µM (inactive)
OVCAR-4
  GI50: 5.18 µM (inactive)
HL-60
  GI50: 4.91 µM (inactive)
A549
  GI50: 5.58 µM (inactive)
SK-MEL-28
  GI50: 25.9 µM (inactive)
K562
  GI50: 6.15 µM (inactive)
SK-MEL-5
  GI50: 13.4 µM (inactive)
SW-620
  GI50: 6.89 µM (inactive)
OVCAR-8
  GI50: 10.8 µM (inactive)
HT-29
  GI50: 5.14 µM (inactive)
NCI/ADR-RES
  GI50: 7.46 µM (inactive)
SNB-19
  GI50: 22.8 µM (inactive)
SF-295
  GI50: 9.1 µM (inactive)
M14
  GI50: 14.6 µM (inactive)
MDA-N
  GI50: 10.6 µM (inactive)
CAKI-1
  GI50: 5.06 µM (inactive)
NCI-H226
  GI50: 14.4 µM (inactive)
UACC-257
  GI50: 16 µM (inactive)
NCI-H23
  GI50: 15 µM (inactive)
HOP-92
  GI50: 14.3 µM (inactive)
SF-268
  GI50: 10.9 µM (inactive)
MOLT-4
  GI50: 5.11 µM (inactive)
MDA-MB-435
  GI50: 14.8 µM (inactive)
SNB-75
  GI50: 8.89 µM (inactive)
HOP-62
  GI50: 14.3 µM (inactive)
SK-MEL-2
  GI50: 7.74 µM (inactive)
MDA-MB-231
  GI50: 19.5 µM (inactive)
LOX IMVI
  GI50: 11.7 µM (inactive)
RPMI-8226
  GI50: 8.97 µM (inactive)
U-251
  GI50: 5.25 µM (inactive)
Hs-578T
  GI50: 10.7 µM (inactive)
PC-3
  GI50: 5.11 µM (inactive)
